Data as given in article PMC6277434, “Discovery of a potent HMG-CoA reductase degrader that eliminates statin-induced reductase accumulation and lowers cholesterol” (Nature Communications, 2018).
Read-outs that look alike come from different tables or passages of the source.

Columns and labels:
HMGCR (TM1-8)-GFP [1] = biological target: T1, HMGCR (TM1-8)-GFP (Cricetulus griseus, UniProt P00347)
T1 sequence (P00347 1-346): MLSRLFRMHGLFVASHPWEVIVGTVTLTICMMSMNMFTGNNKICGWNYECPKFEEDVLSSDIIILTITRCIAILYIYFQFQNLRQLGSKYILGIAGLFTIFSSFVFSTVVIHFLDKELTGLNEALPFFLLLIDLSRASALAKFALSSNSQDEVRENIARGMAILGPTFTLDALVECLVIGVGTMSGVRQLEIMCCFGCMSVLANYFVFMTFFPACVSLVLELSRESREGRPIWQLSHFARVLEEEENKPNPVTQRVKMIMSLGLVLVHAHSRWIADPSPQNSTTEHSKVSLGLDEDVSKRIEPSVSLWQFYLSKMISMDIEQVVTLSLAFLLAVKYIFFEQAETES
Method: (§1) We thus generated a cell line stably expressing the transmembrane domain of HMGCR fused with green fluorescent protein (GFP) as a reporter (HMGCR (TM1-8)-GFP) (Fig. 2a).
(§2) CHO-7 cells were transfected with pCMV-HMGCR (TM1-8)-GFP using FuGENE HD. Twenty-four hours, cells were switched to medium B supplemented with 5% FBS and selected in the presence of 1 mg ml^−1 G418 for 2 weeks. Surviving colonies were isolated and confirmed for GFP expression by immunoblotting and immunofluorescence. The resulting CHO-7/HMGCR (TM1-8)-GFP stable cell line (CHG) was maintained in medium B supplemented with 5% FBS and 200 μg ml^−1 G418.
(§3) CHG cells were treated as described in figure legends. Briefly, cells were seeded at day 0 in 96-well black plate (3904, Corning) at a density of 1.5 × 10^4 cells per well, in medium B containing with 5% LPDS. Day 1, corresponding compounds were added as figure legends described in medium B with 5% LPDS, 1 μM lovastatin, 50 μM sodium mevalonate for 16 h. Then cells were fixed with 4% paraformaldehyde for 20 min, washed with PBS for three times, and stained with 2 μg ml^−1 Hoechst 33342.
(§4) The fluorescent images (GFP and Hoechst channel) were captured using an Operatta High-Content Imaging System (PerkinElmer) with a ×20 objective. The cytoplasmic GFP fluorescence was measured with the Harmony Software (PerkinElmer). Five random selected filed per well were captured, and about 3000 cells were used to determine the mean cytoplasmic GFP fluorescent intensity per cell after subtracting background GFP intensity. The average GFP intensity of DMSO-treated cells was defined as 100.

HMGCR (TM1-8)-GFP [2] = biological target: T1, HMGCR (TM1-8)-GFP; test: HMGCR (TM1-8)-GFP fluorescent assay (high-content imaging) in CHG cells
Method: as §1, §2, §3, §4

[3] = 16 h, read-out: HMGCR (TM1-8)-GFP fluorescent intensity, mean
[4] = read-out: Mean (HMGCR (TM1-8)-GFP signal relative to 0 μM = 100)

Compound	DC50 (HMGCR (TM1-8)-GFP [1]) [µM]	remaining activity at 0.01 µM (HMGCR (TM1-8)-GFP [2]; [3]) [%]	remaining activity at 0.1 µM (HMGCR (TM1-8)-GFP [2]; [3]) [%]	remaining activity at 0.3 µM (HMGCR (TM1-8)-GFP [2]; [3]) [%]	remaining activity at 1 µM (HMGCR (TM1-8)-GFP [2]; [3]) [%]	remaining activity at 3 µM (HMGCR (TM1-8)-GFP [2]; [3]) [%]	remaining activity at 10 µM (HMGCR (TM1-8)-GFP [2]; [3]) [%]	remaining activity at 20 µM (HMGCR (TM1-8)-GFP [2]; [3]) [%]	remaining activity at 30 µM (HMGCR (TM1-8)-GFP [2]; [3]) [%]	remaining activity at 0.03 µM (HMGCR (TM1-8)-GFP [2]; [3]) [%]	remaining activity at 0.156 µM (HMGCR (TM1-8)-GFP [2]; [4]) [%]	remaining activity at 0.313 µM (HMGCR (TM1-8)-GFP [2]; [4]) [%]	remaining activity at 0.625 µM (HMGCR (TM1-8)-GFP [2]; [4]) [%]	remaining activity at 1.25 µM (HMGCR (TM1-8)-GFP [2]; [4]) [%]	remaining activity at 2.5 µM (HMGCR (TM1-8)-GFP [2]; [4]) [%]	remaining activity at 5 µM (HMGCR (TM1-8)-GFP [2]; [4]) [%]	remaining activity at 10 µM (HMGCR (TM1-8)-GFP [2]; [4]) [%]
CC(C)CCC[C@@H](C)[C@H]1CC[C@H]2[C@@H]3CC=C4C(C)(C)[C@@H](O)CC[C@]4(C)[C@H]3CC[C@]12C [Compound 7, 4,4-Dimethyl cholesterol]	14.6	101	104	92.8	83.5	71.9	56.7	47.9	35.9	–	–	–	–	–	–	–	–
CC(C)CCC[C@@H](C)[C@H]1CCC2C3C(=NO)C=C4C(C)(C)[C@@H](O)CC[C@]4(C)C3CC[C@@]21C (stereo partly drawn) [Compound 34]	60.8	–	103	93.6	75.2	65.6	62	65.8	62.1	99.1	–	–	–	–	–	–	–
CC(C)CCC[C@@H](C)[C@H]1CC[C@H]2[C@@H]3[C@@H](O)C=C4C(C)(C)[C@@H](O)CC[C@]4(C)[C@H]3CC[C@]12C [Compound 35, 4,4-Dimethyl 7β-hydroxyl cholesterol]	3.6	100	87.1	83.8	68.2	54.5	37	20	–	104	–	–	–	–	–	–	–
CC(C)CCC[C@@H](C)[C@H]1CCC2C3C(CC[C@@]21C)[C@@]1(C)CC[C@H](O)C(C)(C)C1=C[C@H]3O (stereo partly drawn) [Compound 36]	11.9	106	108	91.3	93.6	69.8	58.6	37.2	–	91.7	–	–	–	–	–	–	–
COC(=O)CC[C@@H](C)C1CCC2C3C(CC[C@@]21C)[C@@]1(C)CC[C@H](O)C(C)(C)C1=C[C@@H]3O (stereo partly drawn) [Compound 49]	6.67	–	–	–	–	–	–	–	–	–	93	100	100	93	78.9	58.3	37.6
C[C@H](CCC(=O)O)C1CCC2C3C(CC[C@@]21C)[C@@]1(C)CC[C@H](O)C(C)(C)C1=C[C@@H]3O (stereo partly drawn) [Compound 50]	–	–	–	–	–	–	–	–	–	–	98.8	106	105	105	103	100	98.3
C[C@H](CCCO)C1CCC2C3C(CC[C@@]21C)[C@@]1(C)CC[C@H](O)C(C)(C)C1=C[C@@H]3O (stereo partly drawn) [Compound 51]	9.08	–	–	–	–	–	–	–	–	–	98.3	102	101	92.8	82.2	67.8	47.7
COCCC[C@@H](C)C1CCC2C3C(CC[C@@]21C)[C@@]1(C)CC[C@H](O)C(C)(C)C1=C[C@@H]3O (stereo partly drawn) [Compound 55]	2.29	–	–	–	–	–	–	–	–	–	100	100	83	63.8	43.1	28.5	21.9
C[C@H](CCC(C)(C)O)C1CCC2C3C(CC[C@@]21C)[C@@]1(C)CC[C@H](O)C(C)(C)C1=C[C@@H]3O (stereo partly drawn) [Compound 56]	52.1	–	–	–	–	–	–	–	–	–	88.3	94.2	92.2	79.4	78.7	72.2	69.4
CCC(O)(CC)CC[C@@H](C)C1CCC2C3C(CC[C@@]21C)[C@@]1(C)CC[C@H](O)C(C)(C)C1=C[C@@H]3O (stereo partly drawn) [Compound 57]	1.75	–	–	–	–	–	–	–	–	–	96.7	90.2	75.6	53.1	36.2	26	23.7
C=CCC(O)(CC=C)CC[C@@H](C)C1CCC2C3C(CC[C@@]21C)[C@@]1(C)CC[C@H](O)C(C)(C)C1=C[C@@H]3O (stereo partly drawn) [Compound 58]	4.5	–	–	–	–	–	–	–	–	–	106	110	104	92.1	68.2	43.8	25.3
CC(O)CC[C@@H](C)C1CCC2C3C(CC[C@@]21C)[C@@]1(C)CC[C@H](O)C(C)(C)C1=C[C@@H]3O (stereo partly drawn) [Compound 63]	2.96	–	–	–	–	–	–	–	–	–	100	97.9	86.9	73.2	50.1	37.4	21
CCC(O)CC[C@@H](C)C1CCC2C3C(CC[C@@]21C)[C@@]1(C)CC[C@H](O)C(C)(C)C1=C[C@@H]3O (stereo partly drawn) [Compound 64]	3.06	–	–	–	–	–	–	–	–	–	100	104	88.2	68.2	52.2	35.6	27
C=CCC(O)CC[C@@H](C)C1CCC2C3C(CC[C@@]21C)[C@@]1(C)CC[C@H](O)C(C)(C)C1=C[C@@H]3O (stereo partly drawn) [Compound 65]	2.33	–	–	–	–	–	–	–	–	–	108	103	93.6	78.4	40.4	22.1	14
COC(=O)CCC[C@@H](C)C1CCC2C3C(CC[C@@]21C)[C@@]1(C)CC[C@H](O)C(C)(C)C1=C[C@@H]3O (stereo partly drawn) [Compound 72]	6.77	–	–	–	–	–	–	–	–	–	109	104	96.6	89.7	77.5	56.3	40.9
C[C@H](CCCC(=O)O)C1CCC2C3C(CC[C@@]21C)[C@@]1(C)CC[C@H](O)C(C)(C)C1=C[C@@H]3O (stereo partly drawn) [Compound 73]	60.6	–	–	–	–	–	–	–	–	–	97	97.9	97.7	98.1	92.6	87.2	81.4
C[C@H](CCCCO)C1CCC2C3C(CC[C@@]21C)[C@@]1(C)CC[C@H](O)C(C)(C)C1=C[C@@H]3O (stereo partly drawn) [Compound 74]	4.52	–	–	–	–	–	–	–	–	–	96.8	94.2	92.9	83.2	62.6	44.4	33
COCCCCC[C@@H](C)C1CCC2C3C(CC[C@@]21C)[C@@]1(C)CC[C@H](O)C(C)(C)C1=C[C@@H]3O (stereo partly drawn) [Compound 95]	2.34	–	–	–	–	–	–	–	–	–	–	–	–	–	–	–	–
C[C@H](CCCCCO)C1CCC2C3C(CC[C@@]21C)[C@@]1(C)CC[C@H](O)C(C)(C)C1=C[C@@H]3O (stereo partly drawn) [Compound 96]	2.96	–	–	–	–	–	–	–	–	–	–	–	–	–	–	–	–
